According to the Kinase Knowledgebase extract (Sharma et al. 2016):
Where “and” joins values, the source holds several entries; their conditions need not be identical. Equal entries are not always repeated.

Key:
PIK3CG;PIK3CA (human) [1] = target: PIK3CG;PIK3CA (human) (UniProt P48736); experiment: Assessment of Antiproliferation Activity in PC3-MM2 Cells; details: pc3mm2
PIK3CG (human) = PIK3CG (human) (UniProt P48736); experiment: Assessment of PIK3CG Kinase Activity
PIK3CA (human) = PIK3CA (human) (UniProt P42336); experiment: Assessment of PIK3CA Kinase Activity
Sequence of PIK3CA (human) (P42336 whole entry, looked up): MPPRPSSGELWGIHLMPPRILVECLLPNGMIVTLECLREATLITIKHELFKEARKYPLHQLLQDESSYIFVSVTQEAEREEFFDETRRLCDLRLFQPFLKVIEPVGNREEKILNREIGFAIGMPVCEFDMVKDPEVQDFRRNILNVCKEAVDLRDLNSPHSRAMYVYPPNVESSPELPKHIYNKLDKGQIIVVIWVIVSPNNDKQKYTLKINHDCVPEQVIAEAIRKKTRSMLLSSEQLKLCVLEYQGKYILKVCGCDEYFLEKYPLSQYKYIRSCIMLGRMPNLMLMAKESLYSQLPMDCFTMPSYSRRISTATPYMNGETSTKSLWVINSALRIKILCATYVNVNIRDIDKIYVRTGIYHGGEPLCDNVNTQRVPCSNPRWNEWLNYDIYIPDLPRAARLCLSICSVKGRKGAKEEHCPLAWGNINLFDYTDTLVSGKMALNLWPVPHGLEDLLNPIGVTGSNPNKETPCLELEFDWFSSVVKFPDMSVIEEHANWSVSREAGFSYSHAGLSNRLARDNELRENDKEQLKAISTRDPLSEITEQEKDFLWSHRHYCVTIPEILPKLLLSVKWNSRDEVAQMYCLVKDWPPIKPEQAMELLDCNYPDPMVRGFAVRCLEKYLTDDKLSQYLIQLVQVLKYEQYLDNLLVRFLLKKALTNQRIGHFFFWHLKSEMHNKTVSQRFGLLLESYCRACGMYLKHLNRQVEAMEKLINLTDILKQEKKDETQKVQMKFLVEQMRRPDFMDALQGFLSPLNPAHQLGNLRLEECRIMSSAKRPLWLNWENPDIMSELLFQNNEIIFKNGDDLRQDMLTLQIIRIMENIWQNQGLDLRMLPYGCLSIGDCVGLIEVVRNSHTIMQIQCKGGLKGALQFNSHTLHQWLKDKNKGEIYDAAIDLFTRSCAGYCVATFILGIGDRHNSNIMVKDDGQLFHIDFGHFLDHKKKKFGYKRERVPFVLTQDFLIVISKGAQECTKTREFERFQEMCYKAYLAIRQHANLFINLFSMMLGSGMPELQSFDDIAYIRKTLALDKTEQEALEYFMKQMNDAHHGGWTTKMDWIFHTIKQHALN

PIK3CG;PIK3CA (human) [2] = target: PIK3CG;PIK3CA (human) (UniProt P48736); experiment: Assessment of Antiproliferation Activity in LNCaP Cells
PIK3CG;PIK3CA (human) [3] = target: PIK3CG;PIK3CA (human) (UniProt P48736); experiment: Assessment of Antiproliferation Activity in MDA-MB-361 Cells

Sequence of PIK3CG;PIK3CA (human) (P48736 whole entry, looked up): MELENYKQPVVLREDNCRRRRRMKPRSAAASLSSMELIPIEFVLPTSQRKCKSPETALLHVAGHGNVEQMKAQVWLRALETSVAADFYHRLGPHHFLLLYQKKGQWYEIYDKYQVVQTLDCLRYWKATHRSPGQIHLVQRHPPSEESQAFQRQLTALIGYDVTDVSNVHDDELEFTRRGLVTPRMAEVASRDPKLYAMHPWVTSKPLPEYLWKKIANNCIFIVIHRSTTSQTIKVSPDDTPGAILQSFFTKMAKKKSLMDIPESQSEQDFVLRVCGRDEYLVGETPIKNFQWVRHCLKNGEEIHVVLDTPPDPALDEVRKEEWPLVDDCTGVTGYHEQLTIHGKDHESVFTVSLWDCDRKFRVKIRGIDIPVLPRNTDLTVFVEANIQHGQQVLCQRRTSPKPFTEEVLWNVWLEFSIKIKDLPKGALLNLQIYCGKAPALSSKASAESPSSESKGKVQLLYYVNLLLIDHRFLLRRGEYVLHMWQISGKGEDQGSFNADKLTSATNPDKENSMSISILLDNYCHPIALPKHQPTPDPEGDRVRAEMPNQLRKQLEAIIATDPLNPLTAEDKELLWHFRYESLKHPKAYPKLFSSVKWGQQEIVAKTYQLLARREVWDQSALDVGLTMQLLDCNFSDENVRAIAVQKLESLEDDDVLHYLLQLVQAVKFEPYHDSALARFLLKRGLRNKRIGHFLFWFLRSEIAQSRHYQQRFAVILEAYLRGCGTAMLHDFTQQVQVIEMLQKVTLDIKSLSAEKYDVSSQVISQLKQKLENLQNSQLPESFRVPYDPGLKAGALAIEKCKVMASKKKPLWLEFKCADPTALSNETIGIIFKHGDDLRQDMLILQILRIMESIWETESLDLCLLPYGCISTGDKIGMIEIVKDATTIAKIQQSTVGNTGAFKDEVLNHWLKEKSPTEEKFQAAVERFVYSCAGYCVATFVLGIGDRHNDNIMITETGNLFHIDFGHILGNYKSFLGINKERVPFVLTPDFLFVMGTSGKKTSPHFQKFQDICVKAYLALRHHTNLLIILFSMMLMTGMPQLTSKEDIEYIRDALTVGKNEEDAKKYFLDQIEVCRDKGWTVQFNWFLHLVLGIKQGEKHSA
Sequence of PIK3CG (human) (P48736 whole entry, looked up): as above

Row | Structure (SMILES) | IC50 (PIK3CG;PIK3CA (human) [1]) [nM] | IC50 (PIK3CG (human)) | IC50 (PIK3CA (human)) | IC50 (PIK3CG;PIK3CA (human) [2]) [nM] | IC50 (PIK3CG;PIK3CA (human) [3]) [nM]
1 | O=C(Nc1ccc(C(=O)NCCN2CCCC2)cc1)Nc1ccc(-c2nc(O[C@H]3CCOC3)nc(N3CCOCC3)n2)cc1 | 27 | – | – | – | –
2 | CN1CCN(c2ccc(NC(=O)Nc3ccc(-c4nc(N5C6CCC5COC6)nc(N5[C@H](CO)CC[C@@H]5CO)n4)cc3)cc2)CC1 | – | 10000 nM | – | – | –
3 | O=C(Nc1ccc(-c2nc(OCCN3CCCCC3)nc(N3CC4CCC(C3)O4)n2)cc1)Nc1cccnc1 | – | 10000 nM | – | – | –
4 | FC(F)c1nc2ccccc2n1-c1nc(N2CCOCC2)nc(N2CC3CCC(C2)O3)n1 | – | 43 nM | 24 nM | – | –
5 | CC(C)N1CCN(C(=O)c2ccc(NC(=O)Nc3ccc(-c4nc(C5CCOCC5)nc(N5CCOCC5)n4)cc3)cc2)CC1 | – | 9.5 nM | 3.2 nM | – | –
6 | CN(C)CCN(C)C(=O)c1ccc(NC(=O)Nc2ccc(-c3nc(C4CCOCC4)nc(N4CCOCC4)n3)cc2)cc1 | – | – | 0.8 nM | – | –
7 | O=C(O)CNC1CCN(c2nc(-c3ccc(NC(=O)Nc4ccncc4)cc3)nc(N3CC4CCC(C3)O4)n2)CC1 | – | 10000 nM | – | – | –
8 | O=C(Nc1ccc(-c2nc(N3C4CCC3COC4)nc(N3C4CCC3COC4)n2)cc1)N1CCNCC1 | – | 10000 nM | – | – | –
9 | CC(C)Nc1nc(-c2ccc(NC(=O)NC3CC3)cc2)nc(N2CC3CCC(C2)O3)n1 | – | 10000 nM | – | – | –
10 | NCCCNc1nc(-c2ccc(NC(=O)Nc3cccnc3)cc2)nc(N2CC3CCC(C2)O3)n1 | – | 10000 nM | – | – | –
11 | CCN(CC)C(=O)[n+]1ccc(NC(=O)Nc2ccc(-c3nc(N4CCOCC4)nc(N4C5CCC4COC5)n3)cc2)cc1 | – | 444 nM and 606 nM | 36 nM and 28 nM | – | –
12 | O=C(Nc1ccc(-c2nc(NCCO)nc(N3CC4CCC(C3)O4)n2)cc1)Nc1cccnc1 | – | 10000 nM | – | – | –
13 | CN1CCC(Nc2ccc(NC(=O)Nc3ccc(-c4nc(N5C6CCC5COC6)nc(N5C6CCC5COC6)n4)cc3)cc2)CC1 | – | – | 6340 nM | 3 | –
14 | C[C@H]1COCCN1c1nc(-c2ccc(NC(=O)Nc3ccc(C(=O)NCCN4CCCC4)cc3)cc2)nc(N2CCOC[C@@H]2C)n1 | 106 | 378 nM | 22 nM | – | 26
15 | CN(C)CCN(C)c1ccc(NC(=O)Nc2ccc(-c3nc(N4C5CCC4COC5)nc(N4C5CCC4COC5)n3)cc2)cc1 | – | – | 6030 nM | 2.2 | –
16 | CN(C)CCOc1ccc(NC(=O)Nc2ccc(-c3nc(N4CCSCC4)nc(N4C5CCC4COC5)n3)cc2)cc1 | – | 2430 nM | 586 nM | – | –
17 | CN(C)C1CCN(c2ccc(NC(=O)Nc3ccc(-c4nc(N5C6CCC5COC6)nc(N5C6CCC5COC6)n4)cc3)cc2)CC1 | – | – | 3090 nM | 1 | –

Row | Structure (SMILES) | IC50 (PIK3CG;PIK3CA (human) [1]) [nM] | IC50 (PIK3CG (human)) | IC50 (PIK3CA (human)) | IC50 (PIK3CG;PIK3CA (human) [2]) [nM] | IC50 (PIK3CG;PIK3CA (human) [3]) [nM]
18 | CC(C)Nc1nc(-c2ccc(NC(=O)Nc3ccc(N4CCN(C)CC4)nc3)cc2)nc(N2CC3CCC(C2)O3)n1 | – | 7030 nM | 521 nM | 50 | –
19 | CN(C)CCNC(=O)c1ccc(NC(=O)Nc2ccc(-c3nc(N4CCCCC4)nc(N4CCOCC4)n3)cc2)cc1 | – | 57.5 nM | 3.5 nM | – | –
20 | Cc1ccc(-c2nc(-c3ccc(NC(=O)Nc4ccc(C(=O)N5CCCC5)cc4)cc3)nc(N3CCOCC3)n2)cc1 | 522 | 72 nM | 12.5 nM | – | 113
21 | O=C(Nc1ccc(-c2nc(N3C[C@@H]4C[C@H]3CO4)nc(N3C[C@@H]4C[C@H]3CO4)n2)cc1)Nc1ccc(N2CCNCC2)cc1 | – | – | – | 100 | –
22 | CNC(=O)Nc1ccc(-c2nc(N3CC4CCC(C3)O4)nc(N3CC4CCC(C3)O4)n2)cc1 | – | 10000 nM | – | – | –
23 | CN1CCCN(c2nc(-c3ccc(NC(=O)Nc4cccnc4)cc3)nc(N3CC4CCC(C3)O4)n2)C1 | – | 10000 nM | – | – | –
24 | O=C(Nc1ccc(NCCO)cc1)Nc1ccc(-c2nc(N3C4CCC3COC4)nc(N3C4CCC3COC4)n2)cc1 | – | 8040 nM | 1460 nM | 70 | –
25 | Nc1ccc(-c2nc(-c3ccc(NC(=O)Nc4cccnc4)cc3)nc(N3CC4CCC(C3)O4)n2)cc1 | – | – | 832 nM | 290 | –
26 | O=C(Nc1ccncc1)Nc1ccc(-c2nc(N3CCC(N4CCOCC4)CC3)nc(N3CC4CCC(C3)O4)n2)cc1 | – | 4000 nM | 1850 nM | 1000 | –
27 | CC(C)N1CCN(C(=O)c2ccc(NC(=O)Nc3ccc(-c4nc(N5CCCCC5)nc(N5CCOCC5)n4)cc3)cc2)CC1 | 193 | 58.5 nM | – | – | 43
28 | COCCNc1ccc(NC(=O)Nc2ccc(-c3nc(N4C5CCC4COC5)nc(N4C5CCC4COC5)n3)cc2)cc1 | – | 7140 nM | 1100 nM | 1.2 | –
29 | CN(C)CCN(C)C(=O)c1ccc(NC(=O)Nc2ccc(-c3nc(N4CCC4)nc(N4CCOCC4)n3)cc2)cc1 | – | 36 nM | 2 nM | – | –
30 | O=C(Nc1ccc(C(=O)Cc2ccccn2)cc1)Nc1ccc(-c2nc(N3CCOCC3)nc(N3CCOCC3)n2)cc1 | 31 | 23 nM | 3 nM | – | 68
31 | CC(C)Nc1nc(-c2ccc(NC(=O)NCCO)cc2)nc(N2CC3CCC(C2)O3)n1 | – | 10000 nM | – | – | –
32 | FC(F)c1nc2ccccc2n1-c1nc(N2CC3CCC(C2)O3)nc(N2CC3CCC(C2)O3)n1 | – | 459 nM | 124 nM | – | –
33 | CN(C)C1CCN(C(=O)c2ccc(NC(=O)Nc3ccc(-c4nc(-c5ccccc5)nc(N5CCOCC5)n4)cc3)cc2)CC1 | 253 | 20.5 nM | 3.5 nM | – | 58
34 | Cc1ccc(-c2nc(-c3ccc(NC(=O)Nc4cccc(C(=O)N5CCC(N(C)C)CC5)c4)cc3)nc(N3CCOCC3)n2)cc1 | – | 658 nM | 462 nM | – | –
